# Results reported in PubChem BioAssay AID588385 (NMMLSC, 2011).
# Activity calls are given as the source filed them.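 How the source made its calls: active means EC50 at most 10 µM,% response shifting 30 points or more across doses, valid curve fit; inactive means the rest.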
# Target: Cell division control protein 42 homolog (Homo sapiens) (UniProt P60953)
# Assay: inhibitors of wildtype Cdc42 GTP binding, SAR follow-up, biochemical, bead multiplex, flow cytometry, round 1 (AID 588385)
# Details: GST-Cdc42 wt beads, Bodipy-GTP binding
# Chain of Cell division control protein 42 homolog (Homo sapiens) (P60953 whole entry, looked up): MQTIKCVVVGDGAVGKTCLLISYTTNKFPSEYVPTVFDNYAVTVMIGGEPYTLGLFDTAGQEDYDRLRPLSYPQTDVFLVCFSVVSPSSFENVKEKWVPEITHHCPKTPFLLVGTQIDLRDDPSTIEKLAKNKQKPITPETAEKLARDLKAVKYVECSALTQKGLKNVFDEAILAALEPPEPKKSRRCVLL
row,Structure (SMILES),EC50 [nM]
1,COc1ccc(C(=O)NC(=S)Nc2sc3c(c2C(=O)O)CC(C)(C)OC3)cc1,501
2,CC1(C)Cc2c(sc(NC(=S)NC(=O)c3ccc(Br)cc3)c2C(=O)O)CO1,452
3,COc1cccc(C(=O)NC(=S)Nc2sc3c(c2C(=O)O)CC(C)(C)OC3)c1,82
4,O=C(NC(=S)Nc1sc2c(c1C(=O)O)CCOC2)c1ccccc1,40
5,CC1(C)Cc2c(sc(NC(=S)NC(=O)c3ccccc3Br)c2C(=O)O)CO1,91
6,CC1(C)Cc2c(sc(NC(=S)NC(=O)c3ccccc3F)c2C(=O)O)CO1,80
7,CC1(C)Cc2c(sc(NC(=S)NC(=O)c3cccc(F)c3)c2C(=O)O)CO1,319

# Second part, the compound after the results:
row,EC50 [nM],Structure (SMILES)
1,168,CC1(C)CCc2sc(NC(=S)NC(=O)c3ccccc3)c(C(=O)O)c2C1
2,405,CC1Cc2c(sc(NC(=S)NC(=O)c3ccccc3)c2C(=O)O)CO1 (stereo unspecified)

# Same assay, conditions: GST-Cdc42 wt beads, Bodipy-GTP binding, at 100 µM (top of the series)
row,Structure (SMILES),% response (lower = inhibition)
1,Cc1ccc(NC(=O)Nc2sc3c(c2C(=O)O)CCN(C)C3)cc1,inactive
2,CC1(C)Cc2c(sc(NC(=S)NC(=O)c3cccc(Br)c3)c2C(=O)O)CO1,inactive
3,CN1CCc2c(sc3nc(Nc4ccc(F)cc4)oc(=O)c23)C1,inactive
4,Cc1ccc(Nc2nc3sc4c(c3c(=O)o2)CCN(C)C4)cc1,inactive
5,CN1CCc2c(sc(NC(=O)Nc3ccc(F)cc3)c2C(=O)O)C1,inactive

# Further lines, results first:
row,% response (lower = inhibition),Structure (SMILES)
1,inactive,CC1(C)Cc2c(sc(NC(=O)Cc3ccccc3)c2C(=O)O)CO1
2,inactive,CCOC(=O)c1c(NC(=O)Nc2ccc(C)cc2)sc2c1CCN(C)C2
3,inactive,CCOC(=O)c1c(NC(=O)NC(C)(C)C)sc2c1CCN(C)C2
4,inactive,CCOC(=O)c1c(NC(=S)NC(=O)c2ccccc2)sc2ccccc12
5,inactive,CCOC(=O)c1c(N)sc2ccccc12
6,inactive,CC1(C)Cc2c(sc(NC(=S)Nc3ccccc3)c2C(=O)O)CO1
7,inactive,CCOC(=O)c1c(NC(=S)Nc2ccccc2)sc2c1CC(C)(C)OC2
8,inactive,CC(C)(C)OC(=O)c1c(NC(=S)NC(=O)c2ccccc2)sc2c1CCOC2
9,inactive,CCOC(=O)c1c(NC(=O)Nc2ccc(F)cc2)sc2c1CCN(C)C2
10,inactive,COC(=O)c1c(NC(=S)NC(=O)c2ccccc2)sc2c1CC(C)(C)OC2
11,inactive,CC1(C)Cc2c(sc(NC(=O)NC(=O)c3ccccc3)c2C(=O)O)CO1
12,inactive,COC(=O)c1c(N)sc2c1CC(C)(C)OC2
